Measurements taken from patent publication US12292437B2, “Fluorescence histo-tomography (FHT) systems and methods” (Emit Imaging, Inc., priority 2015, dated 2025).

Conditions: rat, in vivo
Source text: To address some of these potential drawbacks, as described above, high resolution white light and multispectral (700 and 800 nm) fluorescence images may be captured off the block after every pass of the micro- or macrotome blade using an intraoperative fluorescence imaging system, thus vastly improving the amount of information captured throughout the specimen and decreasing total acquisition time. Generally, the process of fluorescent and high resolution white light data collection and subsequent co-registration and/or three-dimensional reconstruction, is referred to herein as cryofluorescence tomography or FHT.
To investigate the ability of FHT to study the physiology of the brain, XenoLight RediJect 2-Deoxy-D-glucose (2-DG, PerkinElmer, 750 nm excitation), a fluorescent glucose metabolism tracer, was injected into the intrathecal space of a rat. After 1.5 hours of distribution, the animal was sacrificed, the brain tissue excised, and the sample was cryopresevered in OCT. With each pass of the microtome blade (25 micron spacing), a high resolution white light and fluorescent image was acquired.
Further, to study the anatomy of ventricles and subarachnoid space, a fluorescent zwitterionic compound ZW800-1 (Curadel, LLC) was injected into the rat intrathecal space. This compound is not expected to cross into the brain parenchyma due to its chemical properties. […]

- fluorescence signal in brain parenchyma: taken up in the brain parenchyma
Substance: XenoLight RediJect 2-Deoxy-D-glucose [2-DG]
